# How the values were obtained:
# [1] = test system: Acinetobacter baumannii C357; assay: MIC on clinically isolated bacteria; assay type: cell-based; settings: Acinetobacter baumannii C357; read-out: Minimum Inhibitory Concentration (MIC)
# Excerpt: (§1) Twenty-five strains of clinically isolated Acinetobacter baumannii and twenty-seven strains of Pseudomonas aeruginosa were respectively selected and used to determine the minimum inhibitory concentration (MIC) of the compounds by micro-liquid dilution method according to the Institute of Clinical and Laboratory Standard (CLSI) requirements.
# [2] = test system: Pseudomonas aeruginosa W32; assay: MIC on clinically isolated bacteria; assay type: cell-based; settings: read-out: MIC
# Excerpt: as §1
# [3] = test system: Pseudomonas aeruginosa W29; assay: MIC on clinically isolated bacteria; assay type: cell-based; settings: read-out: MIC
# Excerpt: as §1
# [4] = test system: Acinetobacter baumannii C408; assay: MIC on clinically isolated bacteria; assay type: cell-based; settings: Acinetobacter baumannii C408; read-out: Minimum Inhibitory Concentration (MIC)
# Excerpt: as §1
# [5] = test system: Aeruginosa ATCC27853; assay: MIC on clinically isolated bacteria; assay type: cell-based; settings: Pseudomonas aeruginosa; Aeruginosa ATCC27853; read-out: MIC
# Excerpt: as §1
# [6] = test system: Acinetobacter baumannii C181; assay: MIC on clinically isolated bacteria; assay type: cell-based; settings: Acinetobacter baumannii C181; read-out: Minimum Inhibitory Concentration (MIC)
# Excerpt: as §1
# [7] = test system: Pseudomonas aeruginosa C745; assay: MIC on clinically isolated bacteria; assay type: cell-based; settings: read-out: MIC
# Excerpt: as §1
# [8] = test system: Pseudomonas aeruginosa M4; assay: MIC on clinically isolated bacteria; assay type: cell-based; settings: read-out: MIC
# Excerpt: as §1
# [9] = test system: Pseudomonas aeruginosa W23; assay: MIC on clinically isolated bacteria; assay type: cell-based; settings: read-out: MIC
# Excerpt: as §1
# [10] = test system: Pseudomonas aeruginosa W20; assay: MIC on clinically isolated bacteria; assay type: cell-based; settings: read-out: MIC
# Excerpt: as §1
# [11] = test system: Acinetobacter baumannii C281; assay: MIC on clinically isolated bacteria; assay type: cell-based; settings: Acinetobacter baumannii C281; read-out: Minimum Inhibitory Concentration (MIC)
# Excerpt: as §1
# [12] = test system: Pseudomonas aeruginosa W47; assay: MIC on clinically isolated bacteria; assay type: cell-based; settings: read-out: MIC
# Excerpt: as §1
# [13] = test system: Pseudomonas aeruginosa PA14; assay: Lungs of immunosuppressed mice infected with Pseudomonas aeruginosa (2), lung bacterial load; assay type: in vivo; settings: 24 hours after infection, day, ip at 2 h, 4 h, 6 h, 8 h
# Procedure: Pseudomonas aeruginosa PA14. 60 mice were intraperitoneally injected with 150 mg/kg cyclophosphamide on day 1 and day 4 to give immunosuppressed mice. […] [table] The mice were injected with 50 μL of bacterial solution (2×10^3 CFU) through the airway. 2 hours after the infection, 4 mice in the model group was sacrificed by removing cervical vertebra. Two hours after infection, the drugs were administered by groups, and the mice were administered intraperitoneally once at 2 hours, 4 hours, 6 hours, and 8 hours, a total of 4 times. Mice of each group were sacrificed by removing cervical vertebra 24 hours after infection, lung and kidney tissues were taken aseptically and put into a sterilized tissue homogenate tube, weighed, and an appropriate amount of normal saline (NS) was added, the mixture was homogenized by a homogenizer for 1 min, the lung tissues of the model group were diluted 10^4, 10^5, 10^6 times, the lung tissues of each administration group were diluted 10, 100 times, the kidney tissues of the model group were diluted 10^2, 10^3, 10^4 times, and the lung tissues of each administration group were diluted 10 times, the obtained mixtures were coated on TSA plates using spiral coater, then incubated at 37° C. overnight, and the CFU was counted with a colony counter. Graphpad Prism mapping software was used to make scatter plots of lung tissue CFU. SPSS19.0 software was used to count CFU and average body weight, and analysis of variance was used to analyze differences between groups.
# [14] = test system: E. coli ATCC 25922; assay: MIC by micro-liquid dilution method (CLSI); assay type: cell-based; settings: Escherichia coli; E. coli ATCC25922; read-out: MIC
# [15] = test system: Acinetobacter baumannii ATCC-BAA-1799; assay: MIC on Acinetobacter baumannii strains; assay type: cell-based; settings: ATCCBAA1799
# Excerpt: (§2) Twelve strains of Acinetobacter baumannii, A. baumannii ATCC 17978 (ATCC-BAA-1605, ATCC-BAA-1789, ATCC-BAA-1790, ATCC-BAA-1791, ATCC-BAA-1792, ATCC-BAA-1793, ATCC-BAA-1794, ATCC-BAA-1795, ATCC-BAA-1799, ATCC-BAA-1800, ATCC 19606, ATCC 17978) were used to determine the minimum inhibitory concentration (MIC) of the compounds by micro-liquid dilution method according to the Institute of Clinical and Laboratory Standard (CLSI) requirements.
# [16] = test system: Acinetobacter baumannii ATCC-BAA-1791; assay: MIC on Acinetobacter baumannii strains; assay type: cell-based; settings: ATCCBAA1791
# Excerpt: as §2
# [17] = test system: Acinetobacter baumannii ATCC-BAA-1605; assay: MIC on Acinetobacter baumannii strains; assay type: cell-based; settings: ATCCBAA1605
# Excerpt: as §2
# [18] = test system: Acinetobacter baumannii ATCC-BAA-1794; assay: MIC on Acinetobacter baumannii strains; assay type: cell-based; settings: ATCCBAA1794, ATCC-BAA-1794, read-out: MIC
# Excerpt: as §2
# [19] = test system: Acinetobacter baumannii ATCC-BAA-1800; assay: MIC on Acinetobacter baumannii strains; assay type: cell-based; settings: ATCCBAA1800, ATCC-BAA-1800, read-out: MIC
# Excerpt: as §2
# [20] = test system: Acinetobacter baumannii ATCC-BAA-1795; assay: MIC on Acinetobacter baumannii strains; assay type: cell-based; settings: ATCCBAA1795
# Excerpt: as §2
# [21] = test system: Acinetobacter baumannii ATCC-BAA-1792; assay: MIC on Acinetobacter baumannii strains; assay type: cell-based; settings: ATCCBAA1792, ATCC-BAA-1792, read-out: MIC
# Excerpt: as §2
# [22] = test system: Acinetobacter baumannii ATCC 17978; assay: MIC on Acinetobacter baumannii strains; assay type: cell-based; settings: ATCC17978
# Excerpt: as §2
# [23] = test system: Acinetobacter baumannii ATCC-BAA-1790; assay: MIC on Acinetobacter baumannii strains; assay type: cell-based; settings: ATCCBAA1790, ATCC-BAA-1790, read-out: MIC
# Excerpt: as §2
# [24] = test system: Acinetobacter baumannii ATCC-BAA-1793; assay: MIC on Acinetobacter baumannii strains; assay type: cell-based; settings: ATCCBAA1793, ATCC-BAA-1793, read-out: MIC
# Excerpt: as §2
# [25] = test system: Acinetobacter baumannii ATCC 19606; assay: MIC on Acinetobacter baumannii strains; assay type: cell-based; settings: ATCC19606
# Excerpt: as §2
# [26] = test system: Acinetobacter baumannii ATCC-BAA-1789; assay: MIC on Acinetobacter baumannii strains; assay type: cell-based; settings: ATCCBAA1789
# Excerpt: as §2
# [27] = test system: P. aeruginosa ATCC 35151; assay: MIC by micro-liquid dilution method (CLSI); assay type: cell-based; settings: Pseudomonas aeruginosa, ATCC35151
MIC [1] [µg/mL],MIC [2] [µg/mL],MIC [3] [µg/mL],MIC [4] [µg/mL],MIC [5] [µg/mL],MIC [6] [µg/mL],MIC [7] [µg/mL],MIC [8] [µg/mL],MIC [9] [µg/mL],MIC [10] [µg/mL],MIC [11] [µg/mL],MIC [12] [µg/mL],Structure (SMILES),LOG10-of bacterial load ([13]; total dosage 20 mg/kg),LOG10-of bacterial load ([13]; total dosage 60 mg/kg),also measured
4,1,1,4,0.5,4,4,1,0.25,1,4,1,CC1(C)[C@H](NC(=O)/C(=N\O[C@@H](COc2ccc3c(c2)CN(/C(=N\[C@@H]2CCCNC2)N[C@@H]2CCCNC2)C3)C(=O)O)c2csc(N)n2)C(=O)N1OS(=O)(=O)O [Compound 46],3.13 ± 2.45,0.34 ± 0.85,–
1,2,2,1,0.5,2,4,0.5,0.5,2,1,2,CC1(C)[C@H](NC(=O)/C(=N\O[C@@H](COc2ccc3c(c2)CN(C(=N)NCCN)C3)C(=O)O)c2csc(N)n2)C(=O)N1OS(=O)(=O)O [Compound 44],6.80 ± 0.94,2.40 ± 1.99,–
2,4,1,2,0.5,4,4,0.5,0.5,4,2,2,CC1(C)[C@H](NC(=O)/C(=N\O[C@@H](COc2ccc3c(c2)CN(C(=N)N[C@@H]2CCCNC2)C3)C(=O)O)c2csc(N)n2)C(=O)N1OS(=O)(=O)O [Compound 41],4.12 ± 1.50,3.65 ± 2.15,–

Structure (SMILES),MIC [1] [µg/mL],MIC [2] [µg/mL],MIC [3] [µg/mL],MIC [4] [µg/mL],MIC [5] [µg/mL],MIC [6] [µg/mL],MIC [7] [µg/mL],MIC [8] [µg/mL],MIC [9] [µg/mL],MIC [10] [µg/mL],MIC [11] [µg/mL],MIC [12] [µg/mL],LOG10-of bacterial load ([13]; total dosage 20 mg/kg),LOG10-of bacterial load ([13]; total dosage 60 mg/kg),also measured
"C[C@H]1[C@H](NC(=O)/C(=N\OC(C)(C)C(=O)O)c2csc(N)n2)C(=O)N1S(=O)(=O)O [Aztreonam, reference compound]",32,32,32,32,2,64,32,< 0.25,16,32,64,16,–,–,MIC [14]: 0.25 µg/mL; MIC [15]: 128 µg/mL; MIC [16]: 32 µg/mL; MIC [17]: 128 µg/mL; MIC [18]: 32 µg/mL; MIC [19]: 32 µg/mL; MIC [20]: 32 µg/mL; MIC [21]: 64 µg/mL; MIC [22]: 32 µg/mL; MIC [23]: 32 µg/mL; MIC [24]: 64 µg/mL; MIC [25]: 32 µg/mL; MIC [26]: 64 µg/mL; LOG10-of bacterial load ([13]; total dosage 100 mg/kg): 6.91 ± 1.63; MIC [27]: ≤ 0.125 µg/mL
